From publication PMC10638440, “Structural basis of bile salt extrusion and small-molecule inhibition in human BSEP” (Nature Communications, 2023) come the findings set out here.

The target in assay [1] is T1, BSEP (Homo sapiens, UniProt O95342). Details: gene ABCB11.
The next assay deals with T2, BSEPE1244Q (Homo sapiens, UniProt O95342, E1244Q).
T2 construct: gene ABCB11; full-length, nanodisc-reconstituted
Put plainly: cryo-EM structure at […] Å. Format: binding.

For a further assay, the target named is T3, BSEP N996A (Homo sapiens, UniProt O95342, N996A).
T3 construct: gene ABCB11; full-length
T3 sequence (O95342 whole entry N996A): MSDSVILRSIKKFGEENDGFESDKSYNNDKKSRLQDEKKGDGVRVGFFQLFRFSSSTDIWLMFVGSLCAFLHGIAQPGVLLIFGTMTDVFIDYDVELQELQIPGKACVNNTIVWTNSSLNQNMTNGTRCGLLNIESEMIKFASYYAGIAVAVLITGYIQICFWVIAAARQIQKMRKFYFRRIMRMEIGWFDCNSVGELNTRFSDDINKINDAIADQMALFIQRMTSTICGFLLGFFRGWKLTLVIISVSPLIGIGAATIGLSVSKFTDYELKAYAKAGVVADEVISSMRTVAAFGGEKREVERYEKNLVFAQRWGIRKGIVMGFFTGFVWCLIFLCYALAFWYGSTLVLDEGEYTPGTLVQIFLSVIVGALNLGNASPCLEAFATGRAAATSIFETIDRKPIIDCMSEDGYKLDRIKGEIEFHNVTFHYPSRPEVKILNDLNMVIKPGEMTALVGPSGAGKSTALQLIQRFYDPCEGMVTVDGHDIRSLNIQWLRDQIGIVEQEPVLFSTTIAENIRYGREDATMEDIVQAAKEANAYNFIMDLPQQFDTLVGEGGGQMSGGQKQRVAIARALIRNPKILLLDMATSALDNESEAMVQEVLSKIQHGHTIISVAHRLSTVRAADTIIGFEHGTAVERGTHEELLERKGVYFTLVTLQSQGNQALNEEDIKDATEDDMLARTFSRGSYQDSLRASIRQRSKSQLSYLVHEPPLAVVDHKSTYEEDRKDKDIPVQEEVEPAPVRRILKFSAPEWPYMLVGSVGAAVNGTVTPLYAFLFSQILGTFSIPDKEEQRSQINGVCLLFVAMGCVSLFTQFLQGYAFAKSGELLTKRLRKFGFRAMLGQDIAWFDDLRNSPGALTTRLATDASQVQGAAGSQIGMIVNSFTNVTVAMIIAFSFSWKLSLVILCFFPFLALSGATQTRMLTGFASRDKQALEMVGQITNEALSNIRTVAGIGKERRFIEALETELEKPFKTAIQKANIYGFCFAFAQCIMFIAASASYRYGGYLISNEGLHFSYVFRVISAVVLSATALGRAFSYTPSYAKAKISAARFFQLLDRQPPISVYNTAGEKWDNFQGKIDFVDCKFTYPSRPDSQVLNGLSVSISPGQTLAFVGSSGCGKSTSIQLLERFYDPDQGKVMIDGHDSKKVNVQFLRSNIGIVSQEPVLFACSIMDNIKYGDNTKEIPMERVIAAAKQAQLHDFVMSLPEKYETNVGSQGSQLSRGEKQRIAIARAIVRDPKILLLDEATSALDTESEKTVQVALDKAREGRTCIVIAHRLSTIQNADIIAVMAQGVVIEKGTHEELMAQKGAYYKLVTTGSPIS
Put plainly: GBM-stimulated ATPase activity ([…] GBM). Format: biochemical.

The target of assay [2] is T1, BSEP. Put plainly: cryo-EM structure of vanadate-trapped BSEP at […] Å. Format: binding. Details: gene ABCB11; full-length wild-type, nanodisc-reconstituted.

SMILES strings stand for the structures.

T1 sequence (O95342 whole entry): as the sequence (O95342 whole entry N996A) above, with A996N counted along it
T2 sequence (O95342 whole entry E1244Q): as the sequence (O95342 whole entry N996A) above, with A996N, E1244Q counted along it

For the compound `Nc1ncnc2c1ncn2[C@@H]1O[C@H](CO[P@@](=O)(O)O[P@](=O)(O)OP(=O)(O)O)[C@@H](O)[C@H]1O` [ATP], the Km (as a rule, the concentration of substrate that gives half-maximal velocity) at BSEP [1] was 207 µM. In addition, at BSEPE1244Q, the “cryo-EM structure at 3.0 Å” value is reported as “We observed two distinct EM densities in the two NBSs, each corresponding to an ATP molecule”. As to `COc1ccc(Cl)cc1C(=O)NCCc1ccc(S(=O)(=O)NC(=O)NC2CCCCC2)cc1` [GBM, glibenclamide], the “GBM-stimulated ATPase activity (300 μM GBM)” value at BSEP N996A is “N996A and S1022F exhibit increased basal ATPase activity compared to the wild-type BSEP, and their activity is stimulated by GBM”.

As for `Nc1ncnc2c1ncn2[C@@H]1O[C@H](COP(=O)(O)OP(=O)(O)O)[C@@H](O)[C@H]1O` [ADP], the “cryo-EM structure of vanadate-trapped BSEP at 2.8 Å” value on BSEP [2] is “trapping ADP and preventing its release from NBS2”.
